Experiment: Oxygen adsorption-desorption and oxygen affinity (P1/2) of the porphinatoiron(II) complex in toluene solution, by visible absorption spectrum
Format: binding
Description: 46.2 μg (0.03 μmol) of 2-8-(2-methyl-1-imidazolyl)octanoyloxymethyl-5,10,15,20-tetrakis(α,α,α,α-o-(1-methylcyclohexylamido)phenyl)porphinatoiron(III) complex-bromide synthesized in Example 7 was prepare into 10 ml of toluene anhydride solution and the atmosphere in the system was replaced with nitrogen. Then, the solution was mixed and stirred for 2 hours with an aqueous dithionous acid solution in a heterogeneous system to reduce the iron to the iron(II) state. Under nitrogen atmosphere, the toluene layer was extracted, dried over sodium sulfate anhydride and filtrated. The resulting toluene solution was transferred to and sealed in a measuring cell. Thus, a toluene solution of 2-8-(2-methyl-1-imidazolyl)octanoyloxymethyl-5,10,15,20-tetrakis(α,α,α,α-o-(1-methylcyclohexylamido)phenyl)porphinatoiron(II) complex was obtained. The visible absorption spectrum of this solution was λmax: 441, 539, 558 nm, and corresponded to that of a five-coordinated deoxy-type complex in which one imidazole was coordinated.
When oxygen gas was blown into this solution, the spectrum immediately changed to λmax: 424, 552 nm.
Consequently, the adsorption-desorption of oxygen could be continuously carried out by repeating the operation of blowing oxygen and then nitrogen.

With “2-8-(2-methyl-1-imidazolyl)octanoyloxymethyl-5,10,15,20-tetrakis(α,α,α,α-o-(1-methylcyclohexylamido)phenyl)porphinatoiron(II) complex [Example 11]” the “oxygen affinity (partial pressure of oxygen when 50% of the entire porphinatoiron is oxygenated (=P1/2))” value (25° C.) was 20 torr and the “reversibility of adsorption-desorption of oxygen” value (oxygen blown, then nitrogen gas for 1 minute, visible absorption spectrum) was “adsorption-desorption of oxygen occurred reversibly”.
